Drawing on patent publication US20230011869A1 (Hoffmann-La Roche Inc., priority 2018, published 2023), this text covers IC90 for 21 molecules.

This test concerns Acinetobacter baumannii ATCC17961. Put plainly: Antimicrobial susceptibility testing: 90% growth inhibitory concentration (IC90) determination, Iso-Sensitest broth. The conditions noted are these: Acinetobacter baumannii, ATCC17961, 16 h, read-out: ATCC17961 IC90. It counts as cell-based. The method, then: Antimicrobial Susceptibility Testing:
90% Growth Inhibitory Concentration (IC90) Determination
The in vitro antimicrobial activity of the compounds was determined according to the following procedure:
The assay used a 10-points Iso-Sensitest broth medium to measure quantitatively the in vitro activity of the compounds against Acinetobacter baumannii ATCC17978 and Acinetobacter baumannii ATCC17961.
Stock compounds in DMSO were serially twofold diluted (e.g. range from 50 to 0.097 μM final concentration) in 384 wells microtiter plates and inoculated with 49 μl the bacterial suspension in Iso-Sensitest medium to have a final cell concentration of 5×10^(5) CFU/ml in a final volume/well of 50 ul/well. Microtiter plates were incubated at 35±2° C.
Bacterial cell growth was determined with the measurement of optical density at λ=600 nm each 20 minutes over a time course of 16 h. Growth inhibition was calculated during the logarithmic growth of the bacterial cells with determination of the concentration inhibiting 50% (IC50) and 90% (IC90) of the growth.
Table 1 provides the 90% growth inhibitory concentrations (IC90) in micromoles per liter of the compounds of present invention obtained against the strain Acinetobacter baumannii ATCC17978 and Acinetobacter baumannii ATCC17961.

Setting [1] is: 90% growth inhibitory concentration, Acinetobacter baumannii ATCC17961, Iso-Sensitest broth, OD 600 nm over 16 h.

Counter-ions that a name gives are not always drawn. Like-named read-outs stand apart in the source and are kept apart here.

Take `COc1ccc(-c2cnc3c(Nc4ccc(C(=O)N5CCN(C(=O)[C@H]6NC[C@H]7C[C@H]76)CC5)c(C)c4)nccn23)c(F)c1F` (racemic) [Example 82, (4-((1R,2S,5S)-3-azabicyclo[3.1.0]hexane-2-carbonyl)piperazin-1-yl)(4-((3-(2,3-difluoro-4-methoxyphenyl)imidazo[1,2-a]pyrazin-8-yl)amino)-2-methylphenyl)methanone hydrochloride]: the IC90 (in general, the point of the concentration-response curve where the effect stands at 90%) under setting [1] was determined as 98 nM.
As for `CCc1cc(Nc2nccn3c(-c4ccc(OC(F)F)c(F)c4F)cnc23)ccc1C(=O)N1CCC(C(=O)N2C[C@H]3C[C@@H](C2)N3)CC1` [Example 589, (4-(3,6-diazabicyclo[3.1.1]heptane-3-carbonyl)piperidin-1-yl)(4-((3-(4-(difluoromethoxy)-2,3-difluorophenyl)imidazo[1,2-a]pyrazin-8-yl)amino)-2-ethylphenyl)methanone formate], under setting [1], the 90% effect concentration (IC90) is 59 nM.
Still for that read-out and setting: the same measure for `COc1ccc(-c2cnc3c(Nc4ccc(C(=O)N5CCN(C(=O)[C@H]6NC[C@H](O)[C@@H]6O)CC5)c(C)c4)nccn23)cc1F` [Example 233, ((2S,3R,4S)-3,4-dihydroxypyrrolidin-2-yl)(4-(4-((3-(3-fluoro-4-methoxyphenyl)imidazo[1,2-a]pyrazin-8-yl)amino)-2-methylbenzoyl)piperazin-1-yl)methanone hydrochloride]: 190 nM.
For the molecule `COc1ccc(-c2cnc3c(Nc4ccc(C(=O)N5CCN(C(=O)[C@@]67CNCC[C@@H]6OC(C)(C)O7)CC5)c(C)c4)nccn23)c(F)c1F` (stereo in doubt) [Example 578, rel-(4-(4-((3-(2,3-difluoro-4-methoxyphenyl)imidazo[1,2-a]pyrazin-8-yl)amino)-2-methylbenzoyl)piperazin-1-yl)((3aR,7aS)-2,2-dimethyltetrahydro-[1,3]dioxolo[4,5-c]pyridin-3a(4H)-yl)methanone], the IC90 under setting [1] came out at 649 nM.
On the same count and under the same terms, the same measure for `COc1ccc(-c2cnc3c(Nc4ccc(C(=O)N5CCC(C(=O)NCC(O)CNC(N)=O)CC5)c(C)c4)nccn23)c(F)c1F` (stereo not drawn) [Example 88, 1-(4-((3-(2,3-difluoro-4-methoxyphenyl)imidazo[1,2-a]pyrazin-8-yl)amino)-2-methylbenzoyl)-N-(2-hydroxy-3-ureidopropyl)piperidine-4-carboxamide]: 195 nM; for `COc1ccc(-c2cnc3c(Nc4ccc(C(=O)N5C[C@H]6CNC[C@@H](C5)O6)c(C)c4)nccn23)c(F)c1F` [Example 581, ((1R,5S)-9-oxa-3,7-diazabicyclo[3.3.1]nonan-3 - yl)(4-((3-(2,3-difluoro-4-methoxyphenyl)imidazo[1,2-a]pyrazin-8-yl)amino)-2-methylphenyl)methanone dihydrochloride]: 464 nM.
On the same count and under the same terms, then `COc1ccc(-c2cnc3c(Nc4ccc(C(=O)N5CCN(C(=O)C6(O)CCNCC6)CC5)c(C)c4)nccn23)c(F)c1F` [Example 204, [4-[[3-(2,3-difluoro-4-methoxy-phenyl)imidazo[1,2-a]pyrazin-8-yl]amino]-2-methyl-phenyl]-[4-(4-hydroxypiperidine-4-carbonyl)piperazin-1-yl]methanone hydrochloride], with 46 nM; and `Cc1cc(Nc2nccn3c(-c4ccc(OCC#N)c(F)c4Cl)cnc23)ccc1C(=O)N1CCC(C(=O)N2CCN[C@H](CO)C2)CC1` [Example 538, 2-[3-chloro-2-fluoro-4-[8-[4-[4-[(3S)-3-(hydroxymethyl)piperazine-1-carbonyl]piperidine-1-carbonyl]-3-methylanilino]imidazo[1,2-a]pyrazin-3-yl]phenoxy]acetonitrile; for-mic acid], with 88 nM.
Still for that read-out and setting: the same measure for `COc1ccc(-c2cnc3c(Nc4ccc(C(=O)N5CCN(C(=O)[C@@H]6C[C@H](F)CN6)CC5)c(C)c4)nccn23)c(F)c1F` [Example 83, (4-(4-((3-(2,3-difluoro-4-methoxyphenyl)imidazo[1,2-a]pyrazin-8-yl)amino)-2-methylbenzoyl)piperazin-1-yl)((2S,4S)-4-fluoropyrrolidin-2-yl)methanone hydrochloride]: 85 nM; for `COc1ccc(-c2cnc3c(Nc4ccc(C(=O)N5CCN(C(=O)[C@@H]6C[C@@H](F)CN6)CC5)c(C)c4)nccn23)c(F)c1F` [Example 81, (4-(4-((3-(2,3-difluoro-4-methoxyphenyl)imidazo[1,2-a]pyrazin-8-yl)amino)-2-methylbenzoyl)piperazin-1-yl)((2S,4R)-4-fluoropyrrolidin-2-yl)methanone hydrochloride]: 106 nM; for `COc1ccc(-c2cnc3c(Nc4ccc(C(=O)N5CCN(C(=O)[C@@H]6C[C@@](O)(C(F)(F)F)CN6)CC5)c(C)c4)nccn23)c(F)c1F` [Example 582, (4-(4-((3-(2,3-difluoro-4-methoxyphenyl)imidazo[1,2-a]pyrazin-8-yl)amino)-2-methylbenzoyl)piperazin-1-yl)((2S,4S)-4-hydroxy-4-(trifluoromethyl)pyrrolidin-2-yl)methanone hydrochloride]: 273 nM.
On to `Cc1cc(Nc2nccn3c(-c4ccc(OC(F)F)cc4)cnc23)ccc1C(=O)N1CCC(C(=O)N[C@H]2CCNC2)CC1` [Example 279, 1-[4-[[3-[4-(difluoromethoxy)phenyl]imi-dazo[1,2-a]pyrazin-8-yl]amino]-2-methylbenzoyl]-N-[(3S)-pyrrolidin-3-yl]piperidine-4-carboxamide; hydrochloride], for which the IC90 was 1340 nM.
Same read-out and setting: the same measure for `COc1cc(Nc2nccn3c(-c4ccc(OC)c(F)c4F)cnc23)ccc1C(=O)N1CCN(C(=O)C2CCNCC2)CC1` [Example 587, (4-(4-((3-(2,3-difluoro-4-methoxyphenyl)imidazo[1,2-a]pyrazin-8-yl)amino)-2-methoxybenzoyl)piperazin-1-yl)(piperidin-4-yl)methanone formate]: 214 nM.
On to `Cc1cc(Nc2nccn3c(-c4ccc(OCC#N)c(F)c4F)cnc23)ccc1C(=O)N1CCN(C(=O)[C@H]2CCNC[C@@H]2O)CC1` [Example 191, 2-[2,3-difluoro-4-[8-[4-[4-[(3R,4S)-3-hydroxypiperidine-4-carbonyl]piperazine-1-carbonyl]-3-methyl-anilino]imidazo[1,2-a]pyrazin-3-yl]phenoxy] acetonitrile formate], for which, under setting [1], the IC90 came to 73 nM.
Still for that read-out and setting: then `COc1ccc(-c2cnc3c(Nc4ccc(C(=O)N5CCN(C(=O)[C@@H]6C[C@@](OC)(C(F)(F)F)CN6)CC5)c(C)c4)nccn23)c(F)c1F` [Example 583, (4-(4-((3-(2,3-difluoro-4-methoxyphenyl)imidazo[1,2-a]pyrazin-8-yl)amino)-2-methylbenzoyl)piperazin-1-yl)((2S,4S)-4-methoxy-4-(trifluoromethyl)pyrrolidin-2-yl)methanone hydrochloride], with 460 nM.
`Cc1cc(Nc2nccn3c(-c4ccc(OCC#N)c(F)c4F)cnc23)ccc1C(=O)N1CCN(C(=O)[C@@H]2CCNC[C@H]2O)CC1` [Example 190, 2-[2,3-difluoro-4-[8-[4-[4-[(3S,4R)-3-hydroxypiperidine-4-carbonyl]piperazine-1-carbonyl]-3-methyl-anilino]imidazo[1,2-a]pyrazin-3-yl]phenoxy] acetonitrile formate]: the IC90 under setting [1] was 46 nM.
On the same count and under the same terms, the same measure for `COc1ccc(-c2cnc3c(Nc4ccc(C(=O)N5CCN(C(=O)[C@@H]6NCC[C@@H]6O)CC5)c(C)c4)nccn23)c(F)c1F` [Example 79, [4-[[3-(2,3-difluoro-4-methoxyphenyl)imidazo[1,2-a]pyrazin-8-yl]amino]-2-methylphenyl]-[4-[(2R,3S)-3-hydroxypyrrolidine-2-carbonyl]piperazin-1-yl]methanone;hydrochloride]: 167 nM; for `COc1ccc(-c2cnc3c(Nc4ccc(C(=O)N5CCN(C(=O)N6CCN[C@@H](CO)C6)CC5)c(C)c4)nccn23)c(F)c1F` [Example 172, (R)-(4-(4-((3-(2,3-difluoro-4-methoxyphenyl)imidazo[1,2-a]pyrazin-8-yl)amino)-2-methylbenzoyl)piperazin-1-yl)(3-(hydroxymethyl)piperazin-1-yl)methanone hydrochloride]: 78 nM; for `COc1ccc(-c2cnc3c(Nc4cc(C)c(C(=O)N5CCN(C(=O)[C@@H]6C[C@@H](O)CN6)CC5)c(Cl)c4)nccn23)c(F)c1F` [Example 575, (4-(2-chloro-4-((3-(2,3-difluoro-4-methoxyphenyl)imidazo[1,2-a]pyrazin-8-yl)amino)-6-methylbenzoyl)piperazin-1-yl)((2S,4R)-4-hydroxypyrrolidin-2-yl)methanone dihydrochloride]: 583 nM.
Still for that read-out and setting: the same measure for `Cc1cc(Nc2nccn3c(-c4ccc(OCC#N)c(F)c4F)cnc23)ccc1C(=O)N1CCN(C(=O)CN(C)C)CC1` [Example 545, 2-[4-[8-[4-[4-[2-(dimethylamino)acetyl]piper-azine-1-carbonyl]-3-methylanilino]imidazo[1,2-a]pyrazin-3-yl]-2,3-difluorophenoxy]acetonitrile; formic acid]: 38 nM.
On to `CCc1cc(Nc2nccn3c(-c4ccc(OC(F)F)c(F)c4F)cnc23)ccc1C(=O)N1CCC(C(=O)NCC2CCNC2)CC1` (stereo not drawn) [Example 590, 1-(4-((3-(4-(difluoromethoxy)-2,3-difluorophenyl)imidazo[1,2-a]pyrazin-8-yl)amino)-2-ethylbenzoyl)-N-(pyrrolidin-3-ylmethyl)piperidine-4-carboxamide 2,2,2-trifluoroacetate formate], for which the IC90 stood at 30 nM.
